Measured values: patent publication US20240166603A1, “Method of Treating Cancer With Atpenin A5 Derviatives” (Texas Tech University System, priority 2018, published 2024)
Values after ≈ are worked out from the molar mass of the structure shown. Like-named read-outs stand apart in the source and are kept apart here. Marks after values point to notes of the source that are not given here.

Assays:
[1] = target: T1, mitochondrial complex II (CII) (Rattus norvegicus, UniProt P21913+Q641Z9+Q6PCT8); assay: Complex II inhibition assay, isolated rat heart mitochondria; conditions: for CII inhibition activity: 100 nM where stated; for LLE (Ligand-Lipophilicity Efficiency): LLE = pIC50-ClogP; for CII IC50 expressed: conversion of the nM value
T1 sequence (P21913 31-282): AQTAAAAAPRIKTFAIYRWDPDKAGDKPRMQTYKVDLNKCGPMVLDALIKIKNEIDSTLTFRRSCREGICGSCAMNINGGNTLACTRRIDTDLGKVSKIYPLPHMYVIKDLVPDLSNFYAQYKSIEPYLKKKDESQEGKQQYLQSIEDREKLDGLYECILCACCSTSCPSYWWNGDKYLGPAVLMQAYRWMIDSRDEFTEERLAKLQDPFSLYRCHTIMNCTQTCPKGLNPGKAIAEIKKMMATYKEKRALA
T1 sequence (Q641Z9 30-169 limits assumed): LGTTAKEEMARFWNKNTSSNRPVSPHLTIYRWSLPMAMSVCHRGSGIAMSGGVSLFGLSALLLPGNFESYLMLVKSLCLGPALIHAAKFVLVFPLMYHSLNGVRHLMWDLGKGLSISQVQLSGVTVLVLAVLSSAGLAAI
T1 sequence (Q6PCT8 57-159): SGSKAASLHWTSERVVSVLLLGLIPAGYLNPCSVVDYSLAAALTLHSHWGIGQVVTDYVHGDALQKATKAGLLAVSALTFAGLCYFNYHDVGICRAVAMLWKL
T1 sequence (Q920L2 35-656 partner): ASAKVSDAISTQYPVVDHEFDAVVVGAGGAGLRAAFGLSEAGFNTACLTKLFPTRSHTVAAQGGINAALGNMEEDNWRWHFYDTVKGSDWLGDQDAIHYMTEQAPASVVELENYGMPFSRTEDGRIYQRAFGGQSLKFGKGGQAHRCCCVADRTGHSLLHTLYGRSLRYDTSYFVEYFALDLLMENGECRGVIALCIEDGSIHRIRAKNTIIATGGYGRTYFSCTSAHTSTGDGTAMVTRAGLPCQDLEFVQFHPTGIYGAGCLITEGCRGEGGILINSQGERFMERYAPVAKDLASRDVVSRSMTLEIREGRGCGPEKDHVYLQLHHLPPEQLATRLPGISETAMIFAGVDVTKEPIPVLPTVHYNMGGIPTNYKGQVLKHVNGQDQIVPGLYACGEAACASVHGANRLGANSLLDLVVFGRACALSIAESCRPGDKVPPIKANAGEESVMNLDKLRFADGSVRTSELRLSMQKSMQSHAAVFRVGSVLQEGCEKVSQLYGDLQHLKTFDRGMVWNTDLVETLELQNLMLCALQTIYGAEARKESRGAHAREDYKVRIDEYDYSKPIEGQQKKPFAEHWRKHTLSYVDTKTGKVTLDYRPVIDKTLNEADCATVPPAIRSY

[2] = tested on: PC3 prostate cancer cells under hypoxia; assay: Cell death under hypoxia, microfluidic chip, Annexin V and Sytox Green; conditions: for cell death: 10 μM, hypoxia
[3] = Table 5, SDH1 and SDH2, percent relative to control
CII = conditions: cited from earlier work
[4] = target: Complex I (NADH ubiquinone-oxidoreductase) (Mus musculus, UniProt P03888+Q91WD5+Q9DC70); assay: Complex I inhibition assay, mouse cardiac mitochondria; conditions: for Selectivity Ratio (CII:CI): Table 3
[5] = tested on: WPMY-1 prostate stromal cells; assay: Cytotoxicity, WPMY-1 prostate stromal cells; format: cell-based; conditions: Homo sapiens
[6] = tested on: 22Rv1 prostate cancer cells; assay: Cytotoxicity MTS assay, 22Rv1; conditions: for IC50: Homo sapiens, 22Rv1, 48 h, read-out: 22Rv1 IC50; for 22Rv1 IC50: MTS, 48 hours unless otherwise noted; for increase in efficacy relative to Enzalutamide, inhibition of cancer growth in vitro: cell line not given
HEK293 cells = assay: Cytotoxicity MTS assay, HEK293; conditions: for selectivity for prostate cancer cells over HEK293: 16c: DU-145 and 22Rv1, 16k: 22Rv1; for IC50: Homo sapiens, HEK293, 48 h, read-out: HEK293 IC50
[7] = tested on: DU-145 prostate cancer cells; assay: Cytotoxicity MTS assay, DU-145; conditions: for IC50: Homo sapiens, DU-145, 48 h, read-out: DU-145 IC50
bovine CII = bovine CII (Bos taurus, UniProt P35720+Q3T189+Q95123); conditions: literature [27]; cited from earlier work
bovine CII, sequence (Q3T189 29-280): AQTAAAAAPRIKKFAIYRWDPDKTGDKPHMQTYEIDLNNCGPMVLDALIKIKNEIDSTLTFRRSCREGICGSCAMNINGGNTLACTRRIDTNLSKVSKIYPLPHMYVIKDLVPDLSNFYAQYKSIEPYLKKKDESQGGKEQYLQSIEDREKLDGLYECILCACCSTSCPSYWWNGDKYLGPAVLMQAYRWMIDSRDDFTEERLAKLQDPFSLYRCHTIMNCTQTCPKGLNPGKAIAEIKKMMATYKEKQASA
bovine CII, sequence (P35720 30-169): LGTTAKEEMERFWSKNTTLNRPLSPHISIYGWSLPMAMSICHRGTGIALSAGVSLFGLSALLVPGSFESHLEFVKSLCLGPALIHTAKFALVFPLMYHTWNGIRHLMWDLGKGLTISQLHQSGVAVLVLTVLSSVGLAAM
bovine CII, sequence (Q95123 56-158): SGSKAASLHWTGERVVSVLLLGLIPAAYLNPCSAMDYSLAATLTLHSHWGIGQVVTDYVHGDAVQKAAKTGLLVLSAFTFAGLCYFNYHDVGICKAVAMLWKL
bovine CII, sequence (P31039 44-665 partner): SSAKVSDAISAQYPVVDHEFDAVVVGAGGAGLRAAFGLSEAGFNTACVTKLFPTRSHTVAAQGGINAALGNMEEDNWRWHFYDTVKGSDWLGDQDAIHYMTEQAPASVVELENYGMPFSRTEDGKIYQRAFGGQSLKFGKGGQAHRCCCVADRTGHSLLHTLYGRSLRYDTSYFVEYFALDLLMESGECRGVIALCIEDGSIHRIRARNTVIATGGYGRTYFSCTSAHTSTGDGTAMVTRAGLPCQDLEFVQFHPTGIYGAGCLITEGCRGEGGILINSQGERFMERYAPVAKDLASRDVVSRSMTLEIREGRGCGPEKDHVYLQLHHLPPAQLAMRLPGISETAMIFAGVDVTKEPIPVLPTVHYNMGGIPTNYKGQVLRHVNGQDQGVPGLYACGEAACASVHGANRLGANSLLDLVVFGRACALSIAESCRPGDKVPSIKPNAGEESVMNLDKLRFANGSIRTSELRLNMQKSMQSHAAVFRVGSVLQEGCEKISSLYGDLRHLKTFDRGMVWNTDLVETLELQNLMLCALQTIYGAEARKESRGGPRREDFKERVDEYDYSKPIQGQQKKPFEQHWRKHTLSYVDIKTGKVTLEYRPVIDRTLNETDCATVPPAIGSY

3T3 cells = assay: Cytotoxicity, 3T3 mouse embryonic fibroblast cells; format: cell-based; conditions: NIH3T3
22Rv1 cells = assay: Metabolic parameters, Seahorse XF Extracellular Flux Analyzer; format: cell-based, human; conditions: 48 hour incubation
Experimental: Next, the inventors determined the effect of complex II inhibition by the developed inhibitors on mitochondrial metabolic processes. The effect of 16c on electron transport parameters of 22Rv1 cells after 48 hour incubation was studied using a Seahorse XF Extracellular Flux Analyzer.
Assessment of Metabolic Parameters. Changes in oxygen consumption rate were measured using a XF24 Extracellular Flux Analyzer (Seahorse Bioscience, Billerica, MA). 22Rv1 cells were plated in XF24-well plates (40,000 cells/well) and allowed to adapt overnight. Treatments were performed with 16c at concentrations of 1, 10, 20, 30, 50 and 100 μg/mL and incubated for 48 hours. Mito Stress test was performed using oligomycin (10 μM), FCCP (5 μM) and Rotenone/Antimycin A (5 μM) based on the manufacturer's recommended protocol.

LNCaP cells = assay: Potentiation of Enzalutamide in LNCaP cells (FIG. 9); format: cell-based
in vivo = conditions: 1 mg/kg
[8] = target: T1, mitochondrial complex II (CII)
[9] = tested on: PC3 prostate cancer cells; assay: Cytotoxicity MTS assay, PC3; conditions: Homo sapiens, 48 h, read-out: PC3 IC50
[10] = read-out: CII IC50, rat heart mitochondria, mean value of four experiments
[11] = read-out: CII IC50, rat heart CII

CCCCCC(O)c1c(O)nc(OC)c(OC)c1O (racemic) [Compound 18, (rac)-3-(1-hydroxyhexyl)-5,6-dimethoxypyridine-2,4-diol]
inhibition of CII at 100 nM concentration [1]: 0% | CII inhibition activity [1]: no CII inhibition activity | cytotoxic effect under hypoxia ([2]; up to 10 μM): no cytotoxic effect

COc1nc(O)c(C(=O)CCCC[P+](c2ccccc2)(c2ccccc2)c2ccccc2)c(O)c1OC [SDH2]
value at 100 nM (Control 100%) [3]: 61.64% | value at 1 uM (Control 100%) [3]: 43.53%

COc1cc([C@@H]2c3cc4c(cc3[C@@H](O[C@@H]3O[C@@H]5CO[C@@H](C)O[C@H]5[C@H](O)[C@H]3O)[C@H]3COC(=O)[C@H]23)OCO4)cc(OC)c1O [Etoposide, etoposide, reference compound]
cell death [2]: 7%

CCCCCCCC(=O)c1c(O)nc(OC)c(OC)c1O [Compound 16g, 1-(2,4-dihydroxy-5,6-dimethoxypyridin-3-yl)octan-1-one]
LLE (Ligand-Lipophilicity Efficiency) [1]: 4.89 | IC50 [1, 10]: 49.1 nM

COc1[nH]c(=O)c(C(=O)[C@@H](C)C[C@H](C)[C@@H](Cl)CCl)c(O)c1OC [Atpenin A5, atpenin A5]
IC50 (CII; literature [20, 23]): 3.6 to 10 nM | Selectivity Ratio (CII:CI) [4]: >3030 | IC50 ([4]; read-out: Complex I IC50): > 10000 nM | LLE (Ligand-Lipophilicity Efficiency) [1]: 5.36 | IC50 [1, 11]: 3.3 nM | IC50 [1, 10]: 3.3 nM | IC50 ([1]; read-out: Complex II IC50, Table 3): 3.3 nM

COc1nc(O)c(C(=O)CCCCO)c(O)c1OC [Compound 16e, 1-(2,4-dihydroxy-5,6-dimethoxypyridin-3-yl)-5-hydroxypentan-1-one]
LLE (Ligand-Lipophilicity Efficiency) [1]: 6.90 | IC50 [1, 10]: 3730 nM

O=C(CC(=O)C(F)(F)F)c1cccs1 [TFFA, Thenoyltrifluoroacetone]
IC50 (CII; literature): 30000 nM

CCCCCCCCCCCCC(=O)c1c(O)nc(OC)c(OC)c1O [Compound 16k, 1-(2,4-dihydroxy-5,6-dimethoxypyridin-3-yl)tridecan-1-one]
IC50 [5]: 10.7 µg/mL (≈ 29.1 µM) | IC50 [6]: 2 µg/mL (≈ 5.44 µM) | 22Rv1 IC50 [6]: 2 µg/mL | increase in efficacy relative to Enzalutamide, inhibition of cancer growth in vitro [6]: 10 fold | selectivity for prostate cancer cells over HEK293 (HEK293 cells): 17.5 fold | IC50 (HEK293 cells): 35 µg/mL (≈ 95.2 µM) | IC50 [4]: > 10000 nM | Selectivity Ratio (CII:CI) [4]: >3030 | IC50 ([4]; read-out: Complex I IC50): > 10000 nM | LLE (Ligand-Lipophilicity Efficiency) [1]: 3.76 | CII IC50 expressed [1]: 0.00121 µg/mL

COc1nc(O)c(C(=O)CCCCOCc2ccccc2)c(O)c1OC [Compound 16d, 5-(benzyloxy)-1-(2,4-dihydroxy-5,6-dimethoxypyridin-3-yl)pentan-1-one]
LLE (Ligand-Lipophilicity Efficiency) [1]: 3.41 | IC50 [1, 10]: 281 nM

CCCCCC(OC)c1cnc(OC)c(OC)c1O (stereo not shown) [Compound 24, 2,3-dimethoxy-5-(1-methoxyhexyl)pyridin-4-ol]
IC50 [7]: > 30 µg/mL | growth inhibition of DU-145 cells ([7]; up to 30 μg/mL): no growth inhibition effect | inhibition of CII at 100 nM concentration [1]: 0% | CII inhibition activity [1]: no activity to inhibit CII at 100 nM

CCCCCCC(=O)c1c(O)nc(OC)c(OC)c1O [Compound 16f, 1-(2,4-dihydroxy-5,6-dimethoxypyridin-3-yl)heptan-1-one]
IC50 (bovine CII): 20 nM | LLE (Ligand-Lipophilicity Efficiency) [1]: 4.57 | IC50 [1, 10]: 282 nM

Cc1c(C)c2c(c(C)c1OC(=O)CCC(=O)O)CC[C@@](C)(CCC[C@H](C)CCC[C@H](C)CCCC(C)C)O2 [α-TOS, α-Tocopheryl succinate]
IC50 (CII; literature): 42000 nM

CCCCCCCCCCC(=O)c1c(O)nc(OC)c(OC)c1O [Compound 16j, 1-(2,4-dihydroxy-5,6-dimethoxypyridin-3-yl)undecan-1-one]
LLE (Ligand-Lipophilicity Efficiency) [1]: 4.32 | IC50 [1, 11]: 8.6 nM

CCCCC(=O)c1c(O)nc(OC)c(OC)c1O [Compound 16b, 1-(2,4-dihydroxy-5,6-dimethoxypyridin-3-yl)pentan-1-one]
IC50 (bovine CII): 96 nM | LLE (Ligand-Lipophilicity Efficiency) [1]: 5.37 | IC50 [1, 11]: 345 nM | IC50 [1, 10]: 346 nM

CCCCCC(O)c1cnc(OC)c(OC)c1O (racemic) [Compound 19, (rac)-5-(1-hydroxyhexyl)-2,3-dimethoxypyridin-4-ol]
inhibition of CII at 100 nM concentration [1]: 0% | CII inhibition activity [1]: inactive compound

COc1nc(O)c(C(=O)c2ccco2)c(O)c1OC [Compound 16a, (2,4-dihydroxy-5,6-dimethoxypyridin-3-yl)(furan-2-yl)methanone]
inhibition of CII at 100 nM concentration [1]: 0%^e | CII inhibition activity [1]: abrogates CII inhibition activity

O=C(O)CC(=O)O [Malonate]
IC50 (CII; literature): 40000 nM

CCCCCC(O)c1c(OCOC)nc(OC)c(OC)c1OCOC (stereo not shown) [Compound 17, 1-(5,6-dimethoxy-2,4-bis(methoxymethoxy)pyridin-3-yl)hexan-1-ol]
inhibition of CII at 100 nM concentration [1]: 0%

CCCCCC(=O)c1cnc(OC)c(OC)c1O [Compound 20, 1-(4-hydroxy-5,6-dimethoxypyridin-3-yl)hexan-1-one]
inhibition of CII at 100 nM concentration [1]: 0% | CII inhibition activity [1]: no activity at 100 nM concentration

CCCCC(=O)c1c(O)nc(OC)c(OC)c1O [SDH1]
value at 100 nM (Control 100%) [3]: 65.17% | value at 1 uM (Control 100%) [3]: 35.13%

CCCCCCCCC(=O)c1c(O)nc(OC)c(OC)c1O [Compound 16h, 1-(2,4-dihydroxy-5,6-dimethoxypyridin-3-yl)nonan-1-one]
LLE (Ligand-Lipophilicity Efficiency) [1]: 4.93 | IC50 [1, 10]: 15.7 nM

CCCCCC(=O)c1c(O)nc(OC)c(OC)c1O [Compound 16c, 1-(2,4-dihydroxy-5,6-dimethoxypyridin-3-yl)hexan-1-one]
IC50 [5]: 18.4 µg/mL (≈ 68.3 µM) | IC50 (3T3 cells): 31.8 µg/mL (≈ 118 µM) | ATP production (22Rv1 cells): inhibition of ATP production | basal respiration (22Rv1 cells): reducing basal respiration | maximal respiration (22Rv1 cells): reduction of maximal respiration | oxygen consumption rate (22Rv1 cells): substantially reduced in a dose-dependent manner | effect on Enzalutamide (ENZA) in LNCaP cells (LNCaP cells): potentiates Enzalutamide | AUC (in vivo): 19.6 ng·h/mL | Vd (in vivo): 89.5 L/kg | half-life (in vivo): 103 min | AUC(0-inf) (in vivo; AUCinf,obs): 8.3 ng·h/mL | AUC(0-inf) (in vivo; AUCinf,pred): 8.32 ng·h/mL | Tmax (in vivo): 22.8 min | AUCinf,obs (in vivo; female): 23.61 ng·h/mL | AUCinf,pred (in vivo; female): 23.63 ng·h/mL | t1/2λz (in vivo; female): 104 min | AUC(0-inf) (in vivo; female, AUCinf,obs): 36 ng·h/mL | AUC(0-inf) (in vivo; female, AUCinf,pred): 36 ng·h/mL | Cmax (in vivo; female): 140 ng/mL | Tmax (in vivo; female): 15 min | Vssobs (in vivo; male): 134.64772 L/kg | Vsspred (in vivo; male): 129.16994 L/kg | t1/2λz (in vivo; male): 103 min | AUC(0-inf) (in vivo; male, AUCinf,obs): 10.7 ng·h/mL | AUC(0-inf) (in vivo; male, AUCinf,pred): 10.6 ng·h/mL | Cmax (in vivo; male): 23.9 ng/mL | Tmax (in vivo; male): 30 min | LLE (Ligand-Lipophilicity Efficiency) [8]: 5.62 | IC50 [9]: 38 µg/mL (≈ 141 µM) | IC50 [6]: 11 µg/mL (≈ 40.8 µM) | 22Rv1 IC50 [6]: 11 µg/mL | increase in efficacy relative to Enzalutamide, inhibition of cancer growth in vitro [6]: 10 fold | IC50 [7]: 12 µg/mL (≈ 44.6 µM) | selectivity for prostate cancer cells over HEK293 (HEK293 cells): 7.4 fold | IC50 (HEK293 cells): 81 µg/mL (≈ 301 µM) | Selectivity Ratio (CII:CI) [4]: >156 | CII IC50 expressed [1]: 0.01723 µg/mL | cell death [2]: 20%

CC1=NS(=O)(=O)c2cc(Cl)ccc2N1 [Diazoxide, diazoxide, reference compound]
IC50 (CII; literature): 32000 nM | LLE (Ligand-Lipophilicity Efficiency) [1]: 1.85
